According to patent US4072574A, “System for in vitro assay for mutagenicity and/or carcinogenicity of chemicals or other exogenous agents” (priority 1976, dated 1978):

Experiments:
AMV DNA polymerase [1] = assay: Fidelity of in vitro DNA synthesis (error frequency) with AMV DNA polymerase copying synthetic polynucleotide templates; conditions: for Class: Table 1, classes 1-3 not defined; for Complementary Nucleotide (pmoles dTMP) / Non-Complementary Nucleotide (pmoles dCMP) / Error Frequency / effect on error frequency (in words): poly (A).oligo (dT); for Error Frequency: dCMP/dTMP; for effect on error frequency (in words): dTMP complementary, dCMP non-complementary
Description: (§1) In this invention, the ability of carcinogens to decrease the fidelity of in vitro DNA synthesis will be used to screen for carcinogenic or mutagenic agents. The system uses synthetic polynucleotides of defined composition which may be copied in the test tubes with procaryotic, eucaryotic or viral DNA polymerases. The use of synthetic polynucleotides of defined composition allows the measurement of the simultaneous incorporation of the correct, complementary nucleotide and an incorrect, non-complementary nucleotide. The correct nucleotide is labeled with [α-^32 P] of low specific activity and the incorrect nucleotide is labeled with [^3 H] of high specific activity. Through this double labeled reaction it is possible to determine the simultaneous incorporation of both nucleotides and thus to determine an error frequency. The error frequency may be defined as the ratio of the incorrect/correct nucleotide incorporation. Agents which increase this error frequency may be scored as positive. […] Agents which score positive would be checked using different templates to underscore the positive results. In this system different polymerases will be used as well as different templates. One would expect that most carcinogens would change the fidelity of DNA synthesis with different polymerases as well as with different templates though this need not be the case.
(§2) Each assay will consist of a polymerase, a polynucleotide template that only contains one or two nucleotides, a complementary nucleotide and a non-complementary nucleotide as well as magnesium. Both of the nucleotides will be labeled by radioactive precursors and the ratio between the two is to be used for a measure of error frequency in the system. In instances where a template requires two complementary nucleotides, only one will be radioactively labeled.
(§3) Reactions (total volume 0.05 ml) which measured complementary nucleotide incorporation contained 50 mM Tris-HCL (pH 8.0), 20 mM KCl, 5 mM dithiothreitol, 5 mM MgCl2, 2μg BSA, […] [α-^32 P] -dTTP (60 dpm/pmole), 1μg poly (A).oligo (dT) (1:1.5 mass ratio), and 0.45 μg of AMV DNA polymerase. For simultaneous quantitation of complementary and non-complementary nucleotide incorporation each reaction was modified to contain 26μM [α-^32 P]dTTP (12 dpm/pmole) and 23μM [^3 H]-dCTP (50,000 dpm/pmole). […] Metals were added directly to the reaction mixture as aqueous solutions of chloride salts. All reactions were incubated for 60 min. at 37° C. Incorporation of radioactive nucleotides into an acid-insoluble and alkali-resistant product was determined by using the precipitation-solubilization procedure as described by Battula and Loeb. All experiments were performed in triplicate and the averages were determined.
(§4) In order to determine the effect of different metals on the accuracy of DNA replication, metal cations were added as chloride salts directly to the polymerase reaction. In these experiments, poly (A).oligo (dT) was the template-primer and the simultaneous incorporation of complementary nucleotide, [α-^32 P]-dTMP, and the non-complementery nucleotide, [^3 H]-dCMP, was determined.
(§5) The effect of metal salts on the fidelity of DNA synthesis was examined by testing each of the metal salts at a minimum of seven different concentrations.

[2] = as above; conditions: amv dna polymerase
Description: as §1, §2, §3, §4, §5

AMV DNA polymerase [3] = assay: Metal requirements for catalysis by AMV DNA polymerase; assay type: biochemical, avian myeloblastosis virus; conditions: poly (A).oligo (dT); for ability to substitute for Mg^2+ as added divalent cation: absence of Mg^2+, Be^2+ up to 15 mM
Description: All known DNA polymerases require either Mg^2+ or Mn^2+ as an added divalent cation for activity. AMV DNA polymerase used Mg^2+ as an added divalent cation and the maximum rate of polymerization with poly (A).oligo (dT) was attained at 5 mM Mg^2+. […] Thymidine monophosphate incorporation with Be^2+ was less than 0.3% of that obtained with 5 mM Mg^2+.

[4] = known status of the compound; cited from earlier work
[5] = 10 mM added cation + Mg^2+ 5 mM

CC(=O)O [Ba(C2 H3 O2)2]
Class (AMV DNA polymerase [1]; template poly [d(A-T)]): 2 | Metal Concentration which yielded the largest observed change in error rate (AMV DNA polymerase [1]; template poly [d(A-T)]): 10 mM | fold induction at 1 h ([2]; poly [d(a-t)]): 0.94

[Ba+2].[Cl-].[Cl-] [BaCl2]
ability to substitute for Mg^2+ as added divalent cation (AMV DNA polymerase [3]): unable to substitute for Mg^2+ | Complementary Nucleotide (pmoles dTMP) (AMV DNA polymerase [1]; 2 mM added cation + Mg^2+ 5 mM): 240 pmol | Non-Complementary Nucleotide (pmoles dCMP) (AMV DNA polymerase [1]; 2 mM added cation + Mg^2+ 5 mM): 0.42 pmol | Error Frequency (AMV DNA polymerase [1]; 2 mM added cation + Mg^2+ 5 mM): 1/578 | Complementary Nucleotide (pmoles dTMP) (AMV DNA polymerase [1]; 6 mM added cation + Mg^2+ 5 mM): 243 pmol | Non-Complementary Nucleotide (pmoles dCMP) (AMV DNA polymerase [1]; 6 mM added cation + Mg^2+ 5 mM): 0.46 pmol | Error Frequency (AMV DNA polymerase [1]; 6 mM added cation + Mg^2+ 5 mM): 1/528 | Complementary Nucleotide (pmoles dTMP) (AMV DNA polymerase [1]; [5]): 317 pmol | Non-Complementary Nucleotide (pmoles dCMP) (AMV DNA polymerase [1]; [5]): 0.61 pmol | Error Frequency (AMV DNA polymerase [1]; [5]): 1/520 | Class (AMV DNA polymerase [1]; template poly (A).oligo (dT)): 2 | effect on error frequency (in words) (AMV DNA polymerase [1]): did not affect either the incorporation of the complementary or non-complementary nucleotides | Metal Concentration which yielded the largest observed change in error rate (AMV DNA polymerase [1]; template poly (A).oligo (dT)): 10 mM | Carcinogen or Mutagen [4]: -

[Ca+2].[Cl-].[Cl-] [CaCl2]
ability to substitute for Mg^2+ as added divalent cation (AMV DNA polymerase [3]): unable to substitute for Mg^2+ | Complementary Nucleotide (pmoles dTMP) (AMV DNA polymerase [1]; 1 mM added cation + Mg^2+ 5 mM): 704 pmol | Non-Complementary Nucleotide (pmoles dCMP) (AMV DNA polymerase [1]; 1 mM added cation + Mg^2+ 5 mM): 0.70 pmol | Error Frequency (AMV DNA polymerase [1]; 1 mM added cation + Mg^2+ 5 mM): 1/1005 | Complementary Nucleotide (pmoles dTMP) (AMV DNA polymerase [1]; 2 mM added cation + Mg^2+ 5 mM): 129 pmol | Non-Complementary Nucleotide (pmoles dCMP) (AMV DNA polymerase [1]; 2 mM added cation + Mg^2+ 5 mM): 0.19 pmol | Error Frequency (AMV DNA polymerase [1]; 2 mM added cation + Mg^2+ 5 mM): 1/681 | Complementary Nucleotide (pmoles dTMP) (AMV DNA polymerase [1]; 5 mM added cation + Mg^2+ 5 mM): 55 pmol | Non-Complementary Nucleotide (pmoles dCMP) (AMV DNA polymerase [1]; 5 mM added cation + Mg^2+ 5 mM): 0.083 pmol | Error Frequency (AMV DNA polymerase [1]; 5 mM added cation + Mg^2+ 5 mM): 1/665 | Class (AMV DNA polymerase [1]; template poly (A).oligo (dT)): 2 | effect on error frequency (in words) (AMV DNA polymerase [1]): did not alter the error frequency | Metal Concentration which yielded the largest observed change in error rate (AMV DNA polymerase [1]; template poly (A).oligo (dT)): 5 mM | Carcinogen or Mutagen [4]: -

[Cl-].[Cl-].[Mg+2] [Mg^2+, magnesium chloride]
Mg^2+ concentration at which the maximum rate of polymerization was attained (AMV DNA polymerase [3]): 5 mM | Complementary Nucleotide (pmoles dTMP) (AMV DNA polymerase [1]; Mg^2+ 2 mM alone): 320 pmol | Non-Complementary Nucleotide (pmoles dCMP) (AMV DNA polymerase [1]; Mg^2+ 2 mM alone): 0.56 pmol | Error Frequency (AMV DNA polymerase [1]; Mg^2+ 2 mM alone): 1/571 | Complementary Nucleotide (pmoles dTMP) (AMV DNA polymerase [1]; Mg^2+ 5 mM alone): 600 pmol | Non-Complementary Nucleotide (pmoles dCMP) (AMV DNA polymerase [1]; Mg^2+ 5 mM alone): 1.16 pmol | Error Frequency (AMV DNA polymerase [1]; Mg^2+ 5 mM alone): 1/517 | Complementary Nucleotide (pmoles dTMP) (AMV DNA polymerase [1]; Mg^2+ 8 mM alone): 520 pmol | Non-Complementary Nucleotide (pmoles dCMP) (AMV DNA polymerase [1]; Mg^2+ 8 mM alone): 1.00 pmol | Error Frequency (AMV DNA polymerase [1]; Mg^2+ 8 mM alone): 1/520 | Complementary Nucleotide (pmoles dTMP) (AMV DNA polymerase [1]; Mg^2+ 15 mM alone): 240 pmol | Non-Complementary Nucleotide (pmoles dCMP) (AMV DNA polymerase [1]; Mg^2+ 15 mM alone): 0.90 pmol | Error Frequency (AMV DNA polymerase [1]; Mg^2+ 15 mM alone): 1/600 | effect on error frequency (in words) (AMV DNA polymerase [1]): invariant with respect to Mg^2+ concentration

O=CO [NH4 COOH]
Class (AMV DNA polymerase [1]; template poly [d(A-T)]): 2 | Metal Concentration which yielded the largest observed change in error rate (AMV DNA polymerase [1]; template poly [d(A-T)]): 100 mM | fold induction at 1 h ([2]; poly [d(a-t)]): 0.83

CC(=O)O [NaC2 H3 O2]
Class (AMV DNA polymerase [1]; template poly (C).oligo (dG)): 2 | Metal Concentration which yielded the largest observed change in error rate (AMV DNA polymerase [1]; template poly (C).oligo (dG)): 100 mM | fold induction at 1 h ([2]; poly(c).oligo(dg)): 1 | Carcinogen or Mutagen [4]: -

O=C(O)O [NaHCO3]
Class (AMV DNA polymerase [1]; template poly [d(A-T)]): 2 | Metal Concentration which yielded the largest observed change in error rate (AMV DNA polymerase [1]; template poly [d(A-T)]): 40 mM | fold induction at 1 h ([2]; poly [d(a-t)]): 0.96 | Carcinogen or Mutagen [4]: -

[Cl-].[Cl-].[Sr+2] [SrCl2]
Complementary Nucleotide (pmoles dTMP) (AMV DNA polymerase [1]; 4 mM added cation + Mg^2+ 5 mM): 798 pmol | Non-Complementary Nucleotide (pmoles dCMP) (AMV DNA polymerase [1]; 4 mM added cation + Mg^2+ 5 mM): 0.86 pmol | Error Frequency (AMV DNA polymerase [1]; 4 mM added cation + Mg^2+ 5 mM): 1/927 | Complementary Nucleotide (pmoles dTMP) (AMV DNA polymerase [1]; 6 mM added cation + Mg^2+ 5 mM): 936 pmol | Non-Complementary Nucleotide (pmoles dCMP) (AMV DNA polymerase [1]; 6 mM added cation + Mg^2+ 5 mM): 0.96 pmol | Error Frequency (AMV DNA polymerase [1]; 6 mM added cation + Mg^2+ 5 mM): 1/975 | Complementary Nucleotide (pmoles dTMP) (AMV DNA polymerase [1]; [5]): 845 pmol | Non-Complementary Nucleotide (pmoles dCMP) (AMV DNA polymerase [1]; [5]): 0.86 pmol | Error Frequency (AMV DNA polymerase [1]; [5]): 1/982 | Class (AMV DNA polymerase [1]; template poly (A).oligo (dT)): 3 | effect on error frequency (in words) (AMV DNA polymerase [1]): did not affect either the incorporation of the complementary or non-complementary nucleotides | Metal Concentration which yielded the largest observed change in error rate (AMV DNA polymerase [1]; template poly (A).oligo (dT)): 10 mM | Carcinogen or Mutagen [4]: -

[Cl-].[Cl-].[Zn+2] [ZnCl2]
Class (AMV DNA polymerase [1]; template poly [d(A-T)]): 2 | Metal Concentration which yielded the largest observed change in error rate (AMV DNA polymerase [1]; template poly [d(A-T)]): 0.4 mM | Carcinogen or Mutagen [4]: ±
